What all share (assay): NCI-60 cell line screen, 48 h
The subject of assay [1] is K-562 leukemia.
In assay [2] the test system is IGROV1 ovarian.
Assay [3] has as its system SF-539 CNS.
In assay [4] the test system is HOP-62 NSCLC.
Assay [5] relates to MOLT-4 leukemia.
In assay [6] the test system is KM12 colon.
The subject of assay [7] is HCT-15 colon.
The test system of assay [8] is ACHN renal.
Assay [9] has as its system T-47D breast.
For assay [10], the system named is RXF 393 renal.

Each structure is given as a SMILES string.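 Five concentrations, 48 hours, 96-well plates. TGI marks complete inhibition of growth.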

`O=C1CC(NCc2ccccc2)c2c(Cl)sc(Cl)c21` (configuration not stated): the TGI in [1] was above 100 µM; in [2], above 64.6 µM; in [3], 57.5 µM; in assay [4], above 88.1 µM; in [5] it was 43.2 µM; in assay [6] it was above 93.2 µM. Also, the TGI is 46.9 µM in assay [7], 52.8 µM in [8] and above 100 µM in [9].
In the case of `COc1ccccc1C1c2cc3c(cc2OC(N2CCOCC2)C1C)OCO3` (configuration not stated), the TGI in assay [1] amounted to 24 µM; in [2], 81.7 µM; in assay [3] it was 32 µM; in assay [4], 35.3 µM; in assay [5], 48.7 µM; in [6], 39.6 µM. In addition, the TGI is 41.5 µM in assay [7], above 100 µM in assay [8] and 78.3 µM in [9].
`Cc1[nH]c(=O)nc(NNCc2ccc(Cl)cc2)c1C(=O)Nc1ccc(Cl)cc1`: the TGI in [2], in assay [10], in [3], in assay [4], in [5] and in assay [6] was above 100 µM throughout. In addition, the TGI in assay [7] and in assay [9] was above 100 µM in each case.
As to `CC(=O)Oc1ccc2c3c1O[C@H]1[C@H](O)CC[C@@]4(O)[C@@H](C2)N(C)CC[C@]314`, the TGI in [2], in [3], in assay [4], in [5], in assay [6] and in assay [7] was above 100 µM each time. Further, the TGI in assay [8] and in assay [9] was above 100 µM throughout.
With `CC1=CC2c3cccc4[nH]cc(c34)CC2N(C)C1` (configuration not stated), the TGI was above 100 µM in [1]; above 100 µM in assay [2]; above 100 µM in [10]; above 100 µM in assay [3]; 30.8 µM in assay [4]; above 100 µM in assay [5]. The TGI in assay [6] and in [7] was above 100 µM each time.
In the case of `CC(C)NC(=O)OCc1c2c(n(C)c1COC(=O)NC(C)C)-c1ccccc1CC2`, the TGI in [1] is above 38.5 µM; in assay [2], 29.2 µM; in assay [10], 27.3 µM; in [3] it was 34.3 µM; in [4], 18.6 µM; in assay [5], 8.95 µM. The TGI in [6] worked out at 29 µM; in assay [7] it was 27.2 µM.
With `CCn1cnnc1-c1nsc2ccccc12`, the TGI in assay [1], in [2], in [10], in assay [3], in assay [4] and in assay [6] was above 100 µM throughout. Moreover, the TGI in [7] and in assay [8] was above 100 µM throughout.
With `COc1cccc(/C=C2\S/C(=N/Nc3nc(-c4ccc([N+](=O)[O-])cc4)cs3)NC2=O)c1O`, the TGI in [2] was 27.1 µM; in assay [3], 22 µM; in [4] it was 34.1 µM; in assay [5], above 100 µM; in [6], 26.9 µM; in assay [7], 33.9 µM. Moreover, the TGI in assay [8] was 32.3 µM; in [9] it was 27.5 µM.
Consider `CSc1nc2c(c(=O)[nH]1)N=C(c1ccccc1)CC(c1ccccc1)N2` (configuration not stated), for which the TGI is 68.4 µM in assay [1]; above 100 µM in assay [2]; 79.6 µM in [10]; 66.3 µM in assay [3]; above 100 µM in assay [4]; 59.6 µM in assay [5]. The TGI in assay [6] worked out at 29.2 µM; in [8] it was 75.3 µM.
Take `CC1=C(C(=O)N[C@@H](CC(C)C)C(=O)O)N2C(=O)[C@@H](NC(=O)C(N)c3ccccc3)[C@H]2SC1` (some centres not stated): the TGI in assay [1], in assay [2], in assay [10], in assay [3], in assay [5] and in assay [6] was above 100 µM in each case. Moreover, the TGI in [7], in [8] and in assay [9] was above 100 µM throughout.
As for `Cc1cnc2sn(-c3ccc(Br)cc3)c(=O)c2c1`, the TGI in [2] was above 100 µM; in assay [3], above 100 µM; in assay [4], 81.5 µM; in [5], above 100 µM; in assay [6] it was above 100 µM; in assay [7] it was above 100 µM. In addition, the TGI in assay [8] is above 100 µM; in assay [9], 48.4 µM.
Turning to `CCOC(=O)NN(C(=O)OCC)c1c(C)cc(C)cc1C`, the TGI in assay [1], in [2], in [10], in [3], in assay [5] and in assay [6] was above 100 µM each time. Also, the TGI in assay [7] and in assay [9] was above 100 µM each time.
With `CC(=O)Nc1cccc(N=NN(C)C)c1`, the TGI in assay [1], in [2], in assay [10], in assay [3], in assay [4] and in assay [5] was above 100 µM each time. For the same compound, the TGI in assay [6] and in assay [7] was above 100 µM throughout.
`CCC1NC(N=Nc2ccc([N+](=O)[O-])cc2)(P(=O)(OC(C)C)OC(C)C)OC1=O` (configuration not stated): the TGI in assay [1], in assay [2], in assay [3], in [4], in assay [5] and in assay [6] was above 100 µM throughout. In addition, in [8], the TGI was above 100 µM.
On to `Cc1ccc2c(/C=C/c3ccc(N(C)C)cc3)ccc(C(C)C)cc1-2`, for which the TGI in [1], in assay [2], in assay [10], in [4], in assay [5] and in assay [6] was above 100 µM in each case. The TGI in [8] and in assay [9] was above 100 µM in each case.

(Values after PubChem BioAssay (NCI).)
